The source of these data is patent US20240251792A1, “WEED CONTROL METHOD” (SYNGENTA CROP PROTECTION AG, priority 2021, published 2024).

Each structure is given as a SMILES string. Where two headings read alike, the source gives them in different places.

What all share (assay type): in vivo
Experiment [1] concerns ABUTH. Briefly: Pre-emergence biological efficacy (Table 3). The conditions noted are these: after 13 days; for pest or weed control at 1000 g/ha: Abutilon theophrasti, 312 h, read-out: evaluation (100=total damage to plant; 0=no damage to plant). The method, boiled down: (§1)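 Sown pots, 1 d glasshouse (24/19 °C, 16 h light), pre-emergence spray of compound from 50 g/l AMA formulation diluted in 0.2% Genapol X080. Grown at 24/18 °C, 15 h light, 50% humidity, watered twice daily; scored 0–100 damage at 13 d.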

The subject of experiment [2] is AMARE. Description: Pre-emergence biological efficacy (Table 3). Conditions: 1000 g/ha, after 13 days; for pest or weed control at 1000 g/ha: Amaranthus retroflexus, 312 h, read-out: evaluation (100=total damage to plant; 0=no damage to plant). The procedure, abridged:
as §1

For experiment [3], the system named is ECHCG. Briefly: Pre-emergence biological efficacy (Table 3). The conditions noted are these: 1000 g/ha, after 13 days; for pest or weed control at 1000 g/ha: Echinochloa crus-galli, 312 h, read-out: evaluation (100=total damage to plant; 0=no damage to plant). The procedure, abridged:
as §1

Experiment [4] relates to IPOHE. Description: Pre-emergence biological efficacy (Table 3). Conditions: 1000 g/ha, after 13 days; for pest or weed control at 1000 g/ha: Ipomoea hederacea, 312 h, read-out: evaluation (100=total damage to plant; 0=no damage to plant). The procedure, abridged: as §1
Experiment [5] has as its system STEME. Briefly: Pre-emergence biological efficacy (Table 3). Conditions: after 13 days; for pest or weed control at 1000 g/ha: 312 h, read-out: evaluation (100=total damage to plant; 0=no damage to plant). The procedure, abridged: as §1
Experiment [6] concerns ZEAMX. Description: Pre-emergence biological efficacy (Table 3). Conditions: 1000 g/ha, after 13 days; for plant injury at 1000 g/ha: 312 h, read-out: evaluation (100=total damage to plant; 0=no damage to plant). The method, boiled down: as §1
Experiment [7] deals with weeds and/or crops. Description: Post-emergence biological efficacy (Table 4). The conditions noted are these: 1000 g/ha, evaluated after 13 days; for pest or weed control at 1000 g/ha: 312 h. The procedure, abridged:
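Weeds and crops were grown 14 days in a glasshouse, then sprayed post-emergence with compound formulated in acetone/F50 and diluted in 0.2% Genapol X080 to the final dose. Damage was scored after 13 days on a 0–100 scale, where 100 is total damage.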

Setting [8] is: STEME, read-out: damage to plant STEME (100=total damage; 0=no damage).
Where [9] appears, read: ZEAMX, read-out: damage to plant ZEAMX (100=total damage; 0=no damage).
Setting [10] is: Amaranthus retroflexus, AMARE, read-out: damage to plant AMARE (100=total damage; 0=no damage).
Setting [11] is: Echinochloa crus-galli, ECHCG, read-out: damage to plant ECHCG (100=total damage; 0=no damage).
Setting [12] is: Ipomoea hederacea, IPOHE, read-out: damage to plant IPOHE (100=total damage; 0=no damage).
Where [13] appears, read: Abutilon theophrasti, ABUTH, read-out: damage to plant ABUTH (100=total damage; 0=no damage).

Consider `CSc1cccc(C(F)(F)C(=O)O)c1Cl` [Compound 1-220, 2-(2-Chloro-3-methylsulfanyl-phenyl)-2,2-difluoro-acetic acid], for which the pest or weed control at 1000 g/ha came out at 80% in experiment [1]; 50% in experiment [2]; 0% in experiment [3]; 70% in experiment [4]; 50% in experiment [5]; 70% in experiment [7] (setting [8]). The pest or weed control at 1000 g/ha in experiment [7] (setting [9]) worked out at 10%; in experiment [7] (setting [10]) it was 70%; in experiment [7] (setting [11]), 0%; in experiment [7] (setting [12]) it was 70%. For the same compound, the plant injury at 1000 g/ha in experiment [6] was 10%.

Take `O=C(O)C(F)(F)c1cccc(Cl)c1[N+](=O)[O-]` [Compound 7-250, Ammonium 2-(3-chloro-2-nitro-phenyl)-2,2-difluoro-acetate]: the pest or weed control at 1000 g/ha in experiment [1] stood at 90%; in experiment [2] it was 100%; in experiment [3] it was 30%; in experiment [4], 90%; in experiment [5], 100%; in experiment [7] (setting [8]), 100%. Further, the pest or weed control at 1000 g/ha in experiment [7] (setting [9]) is 20%; in experiment [7] (setting [13]) it was 90%; in experiment [7] (setting [10]), 100%; in experiment [7] (setting [11]), 30%; in experiment [7] (setting [12]) it was 80%. Moreover, the plant injury at 1000 g/ha in experiment [6] came out at 50%.

As to `COc1c(Cl)cccc1C(F)(F)C(=O)O` [Compound 1-317, 2-(3-chloro-2-methoxy-phenyl)-2,2-difluoro-acetic acid], the pest or weed control at 1000 g/ha in experiment [1] came out at 100%; in experiment [2], 90%; in experiment [3] it was 90%; in experiment [4], 90%; in experiment [5] it was 100%; in experiment [7] (setting [8]), 100%. Besides, the pest or weed control at 1000 g/ha in experiment [7] (setting [9]) is 60%; in experiment [7] (setting [10]), 100%; in experiment [7] (setting [11]) it was 60%; in experiment [7] (setting [12]), 90%. Moreover, the plant injury at 1000 g/ha in experiment [6] is 70%.

In the case of `Nc1c(Cl)ccc(Cl)c1C(F)(F)C(=O)O` [Compound 7-254, 2-(2-amino-3,6-dichlorophenyl)-2,2-difluoroacetic acid], the pest or weed control at 1000 g/ha was found to be 40% in experiment [1]; 20% in experiment [2]; 0% in experiment [3]; 10% in experiment [4]; 30% in experiment [5]; 60% in experiment [7] (setting [8]). Besides, the pest or weed control at 1000 g/ha in experiment [7] (setting [9]) turned out to be 20%; in experiment [7] (setting [13]), 30%; in experiment [7] (setting [10]) it was 50%; in experiment [7] (setting [11]) it was 0%; in experiment [7] (setting [12]), 30%. In addition, the plant injury at 1000 g/ha in experiment [6] was 10%.

As for `O=C(O)C(F)(F)c1cccc2cccc(Cl)c12` [Compound 1-416, 2-(8-chloro-1-naphthyl)-2,2-difluoro-acetic acid], the pest or weed control at 1000 g/ha was 80% in experiment [1]; 90% in experiment [2]; 40% in experiment [3]; 90% in experiment [4]; 80% in experiment [5]; 90% in experiment [7] (setting [8]). Also, the pest or weed control at 1000 g/ha is 20% in experiment [7] (setting [9]), 80% in experiment [7] (setting [10]), 10% in experiment [7] (setting [11]) and 80% in experiment [7] (setting [12]). Also, the plant injury at 1000 g/ha in experiment [6] came to 10%.

In the case of `N.Nc1ccc(C(F)(F)C(=O)O)c(Cl)c1Cl` [Compound 7-75, Ammonium;2-(4-amino-2,3-dichloro-phenyl)-2,2-difluoro-acetate], the “evaluation (100=total damage to plant; 0=no damage to plant)” value was 70 in experiment [1] (1000 g/ha); 70 in experiment [2]; 30 in experiment [3]; 20 in experiment [4]; 70 in experiment [5] (1000 g/ha); 0 in experiment [6]. Moreover, the “damage to plant AMARE (100=total damage; 0=no damage)” value in experiment [7] (AMARE) is recorded as 70. Besides, in experiment [7] (ECHCG), the “damage to plant ECHCG (100=total damage; 0=no damage)” value came out at 60. The “damage to plant IPOHE (100=total damage; 0=no damage)” value in experiment [7] (IPOHE) turned out to be 20. The “damage to plant STEME (100=total damage; 0=no damage)” value in experiment [7] (STEME) is 90. In addition, the “damage to plant ZEAMX (100=total damage; 0=no damage)” value in experiment [7] (ZEAMX) came to 10.

Turning to `O=C(O)C(F)(F)c1c(Cl)ccc2c1OC(F)(F)O2` [Compound 1-389, 2-(5-Chloro-2,2-difluorobenzo[d][1,3]dioxol-4-yl)-2,2-difluoroaceticacid], the pest or weed control at 1000 g/ha in experiment [1] turned out to be 50%; in experiment [2], 60%; in experiment [3], 10%; in experiment [4], 60%; in experiment [5], 60%; in experiment [7] (setting [8]), 50%. Also, the pest or weed control at 1000 g/ha in experiment [7] (setting [9]) was found to be 0%; in experiment [7] (setting [10]) it was 80%; in experiment [7] (setting [11]), 10%; in experiment [7] (setting [12]), 70%. For the same compound, the plant injury at 1000 g/ha in experiment [6] came to 10%.

In the case of `COc1c(F)cccc1C(F)(F)C(=O)O` [Compound 1-306, 2,2-Difluoro-2-(3-fluoro-2-methoxy-phenyl)acetic acid], the pest or weed control at 1000 g/ha amounted to 20% in experiment [1]; 30% in experiment [2]; 10% in experiment [3]; 60% in experiment [4]; 10% in experiment [5]; 0% in experiment [7] (setting [8]). Moreover, the pest or weed control at 1000 g/ha in experiment [7] (setting [9]) is 10%; in experiment [7] (setting [10]) it was 70%; in experiment [7] (setting [11]) it was 0%; in experiment [7] (setting [12]), 60%. The plant injury at 1000 g/ha in experiment [6] is 0%.

In the case of `Nc1cc(Cl)cc(C(F)(F)C(=O)O)c1Cl` [Compound 1-235, 2-(3-Amino-2,5-dichlorophenyl)-2,2-difluoroacetic acid], the pest or weed control at 1000 g/ha in experiment [1] amounted to 30%; in experiment [2] it was 40%; in experiment [3] it was 10%; in experiment [4], 20%; in experiment [5], 30%; in experiment [7] (setting [8]), 50%. Also, the pest or weed control at 1000 g/ha was 20% in experiment [7] (setting [9]), 70% in experiment [7] (setting [10]), 20% in experiment [7] (setting [11]) and 30% in experiment [7] (setting [12]). Besides, the plant injury at 1000 g/ha in experiment [6] stood at 0%.

Regarding `N#Cc1c(Cl)cccc1C(F)(F)C(=O)O` [Compound 1-262, 2-(3-Chloro-2-cyano-phenyl)-2,2-difluoro-acetic acid], the pest or weed control at 1000 g/ha in experiment [1] was determined as 90%; in experiment [2], 90%; in experiment [3], 0%; in experiment [4], 90%; in experiment [5], 100%; in experiment [7] (setting [8]), 100%. For the same compound, the pest or weed control at 1000 g/ha was determined as 20% in experiment [7] (setting [9]); 80% in experiment [7] (setting [13]); 90% in experiment [7] (setting [10]); 0% in experiment [7] (setting [11]); 70% in experiment [7] (setting [12]). Also, the plant injury at 1000 g/ha in experiment [6] came out at 40%.
